In general, GI50 refers to the concentration giving 50% growth inhibition. Low readings indicate greater sensitivity of the cells, high ones lower sensitivity of the cells. By IC50 is commonly meant the midpoint of a concentration-inhibition curve. One may read the TGI as the concentration at which net growth stops.

Read-outs that look alike come from different tables or passages of the source.

For experiment [1], the system named is human lung cancer cell line (NCI-H460). Briefly: Sulforhodamine B (SRB) growth inhibition assay. The experiment is classed as cell-based. The conditions noted are these: for GI50: Homo sapiens. How it is done: The sulforhodamine B (SRB) protein-staining assay was employed for measurement of in vitro growth inhibition and cytotoxicity (21) The appropriate cell density (cells/well) of NCI-H460 cells (1×10^4) was added in 96-well plates. The cell density used was dependent on the doubling time of the cell line leading to the formation of monolayer. After 24 h incubation, different doses of Compounds 1-3 were added and incubated for further 48 h. This was followed by fixation of cells with ice-cold trichloroacetic acid (50 μl, 50%) at room temperature for 30 min. The plates were carefully washed five times with distilled water, and left for overnight drying in air. Sulforhodamine B dye (100 μl, 0.4% in 1% acetic acid) was introduced in each well and after 30 min residual dye was removed using acetic acid (1%) and air-dried overnight. The bound SRB dye was solubilized in Tris-base solution (100 μl, 10 mM) with gentle shaking on a plate-shaker for 5 min prior to optical density (OD) measurements at 545 nm in a plate reader. Drug concentrations causing growth inhibition (GI50) of 50% cells were calculated from dose response curves and total growth inhibition of Compound 2 was also evaluated.

The test system of experiment [2] is PHA-activated T-cell proliferation. Description: PHA-activated T-cell proliferation assay (3H-thymidine incorporation). In kind it is cell-based, human. Conditions: for IC50: Homo sapiens, T-cell, PHA 5 μg/mL, 72 hours incubation; for effect on T-cell proliferation (in words): PHA-activated. On the procedure:
(§1) FIG. 2: Effect of Compounds 1-3 on phytohemagglutinin (PHA) T-cell proliferation and production. (2A) The bar graph represents effects of various concentrations of the test Compounds 1-3 after 72 h incubation with peripheral blood mononuclear cells at 37° C. Effect of compounds on T-cell proliferation response is compared with non-proliferated […] cells. The bar graph (2B) represents effects of various concentrations of the test Compounds 1-3 on production of IL-2 compared with (+ve) and without (−ve) PHA induced IL-2 production. Each bar represents the mean value of triplicate reading±SD.
The T-cell proliferation assay was performed as described by Nielson et al. (19). In this assay, isolated lymphocytes were stimulated by adding the phytohemagglutinin (PHA) in culture. The rate of proliferation and survival was measured by radiolabelled thymidine incorporation method. The lymphocytes were isolated as described by Boyum (20). A 50 μL of cell suspension (10^6/mL) was added to each well of a 96-well round bottom tissue culture plate. 50 μL of PHA was added in each well from the working solution (20 μg/mL) to have final concentration 5 μg/mL. The final volume was adjusted to 200 μL in each well by adding complete RPMI media. The plates were incubated at 37° C. for 72 hours (90% humidity, 5% CO2/air). Methyl-^3H thymidine (Amersham Pharmacia Biotech) 0.5 μCi was added in each well and incubated for further 18 hours. Cells were harvested on a filter mat (Type G-7) using cell harvester (INOTECH IH-280, Switzerland) and the radioactivity (CPM) was measured using a β-scintillation counter (LS 6500, Beckman Coulter, USA). (FIG. 2A)

The next experiment concerns IL-2 production. Description: IL-2 cytokine production by PHA activated peripheral blood mononuclear cells (ELISA). The experiment is classed as cell-based, human. How it is done: as §1
IL-2 cytokine was produce from peripheral blood mononuclear cells (PBMC). IL-2 cytokine production by PHA activated cells in the presence or absence of test compounds was studied by ELISA using the human cytokine kit (Diaclone, Besancon Cedex France). Briefly, freshly prepared mononuclear cells (10^5/well) were cultured in 96-well microtiter flat bottom plate in the presence or absence of 5 μg/mL PHA. Four different concentrations (10.33-331.13 μM/mL) of compounds, along with PHA, were used in this assay. The culture plate was incubated at 37° C. for 18 h. Then the supernatant was collected and analyzed for IL-2 cytokine production following kit manufacturer instructions.

Experiment [3] concerns isolated polymorphoneutrophils (PMNs). Briefly: Oxidative burst, luminol-enhanced chemiluminescence, isolated PMNs. Conditions: for IC50: Homo sapiens, isolated PMNs, opsonized zymosan-A, luminol. In kind it is cell-based, human. On the procedure:
(§2) In addition to that, effects of these compounds on T-cells proliferation were also evaluated; investigating their (Compounds 2 and 3) ability to modulate PHA activated T-cell proliferation response and production of IL-2 cytokine.
(§3) Heparinized blood was obtained by vein puncture aseptically from healthy volunteers (25-38 years age). The buffy coat containing PMNs was collected by dextran sedimentation and the cells were isolated after the LSM density gradient centrifugation from the tube base. Cells were washed twice and suspended in Hank's Balance Salt Solution (Ca^2+ and Mg^2+ free) (HBSS^−−), pH 7.4. Neutrophils were purified from RBCs contamination using hypotonic solution. Cells were adjusted to their required concentration using Hank's Balance Salt Solution containing Ca^2+ and Mg^2+ (HBSS^++).
(§4) Luminol-enhanced chemiluminescence assay was performed as described by Helfand et al. (17), and Haklar et al. (18) with some modifications. Briefly, 25 μL diluted whole blood (1:200 dilution in sterile HBSS^++) or 25 μL of PMNs (1×10^6) cells were incubated with 25 μL of serially diluted compounds with concentration ranges between 3.2-50 mg/mL. Tests were performed in white 96-well plates, which were incubated at 37° C. for […] in the thermostated chamber of the luminometer. Opsonized zymosan-A, 25 μL, followed by 25 μL luminol (7×10^−5 M) along with HBSS^++ was added to each well to obtain a 100 μL volume/well. Wells received HBSS^++, and cells but no compounds were used as a negative control. Chemiluminescence peaks were recorded with the Luminometer. Results were monitored as chemiluminescence relative light units (RLU) with peak and total integral values.

A further experiment has as its system whole blood phagocytes. Briefly: Oxidative burst, luminol-enhanced chemiluminescence, whole blood. In kind it is cell-based, human. The conditions noted are these: for IC50: Homo sapiens, diluted whole blood, opsonized zymosan-A, luminol. On the procedure: as §2, §3, §4
Where [4] appears, read: Homo sapiens, PBMC, 18 h, PHA-activated PBMC, 18 h, ELISA, read-out: IC50 (μM) IL-2.

In experiment [1] (NCI-H460, 48 h, SRB), `COc1cccc2c1C(=O)c1c(O)c3c(c(O)c1C2=O)C[C@@](O)(C(=O)CO)C[C@@H]3O[C@H]1C[C@H](N)[C@H](O)[C@H](C)O1` [doxorubicin, reference compound] came in with a GI50 of 0.08 ± 0.02 µM.

Consider `C[C@]12CCC(=O)C[C@@H]1CC[C@@H]1[C@@H]2CC[C@@]2(C)[C@H]1CC[C@]2(C)O` [Compound 3, 17β-hydroxy-17α-methyl-5α-androstan-3-one], for which, in experiment [2], 42.1 µM corresponded to half-maximal inhibition (IC50) and the “effect on T-cell proliferation (in words)” value is reported as “moderate inhibitory activity”. In addition, the IC50 with IL-2 production (setting [4]) was found to be 49.3 ± 1.32 µM. In addition, in the experiment with IL-2 production (PHA-activated PBMC), the “effect on IL-2 production (in words)” value is reported as “moderate inhibitory activity”. Moreover, in the experiment with IL-2 production (PHA-activated PBMC, 18 h, ELISA, read-out: IC50 (μM) IL-2), the 50% inhibitory concentration (IC50) turned out to be 49.3 ± 1.32 µM. Further, in experiment [3], the “effect on reactive oxygen species (ROS) production, isolated neutrophils (in words)” value is recorded as “did not result in any significant effect” and the IC50 was over 164 µM. The “anticancer activity against NCI-H460 cell line (in words)” value (“anticancer activity” below) in experiment [1] is recorded as “non-active”. Besides, in experiment [1] (NCI-H460, 48 h, SRB), the GI50 is over 100 µM and the “TGI (μM)” value is given as “ND (ND: Values could not be determined indicates <50% inhibition of cell growth at maximum dose (100 μM) tested.)”. For the same compound, in experiment [1] (NCI-H460, 100 μM), the “growth inhibition of cancer cells at 100 μM (in words)” value is listed as “not able to inhibit considerable growth of cancer cells”. Besides, in the experiment with whole blood phagocytes, the “effect on reactive oxygen species (ROS) production, whole blood phagocytes (in words)” value is given as “did not result in any significant effect” and the IC50 was over 329 µM.

With `C[C@]12C=CC(=O)C[C@@H]1CC[C@@H]1[C@@H]2CC[C@@]2(C)[C@H]1CC[C@]2(C)O` [Compound 2, 17β-hydroxy-17α-methyl-5α-androst-1-en-3-one], the concentration for half-maximal inhibition (IC50) was under 10.3 µM in experiment [2]; 16.9 ± 1.32 µM in the experiment on IL-2 production (setting [4]); 16.9 ± 1.32 µM in the experiment with IL-2 production (Homo sapiens, PBMC, FIG. 2, read-out: IL-2 production IC50 (unit inferred)); over 166 µM in experiment [3]; over 331 µM in the experiment with whole blood phagocytes. Further, the “effect on reactive oxygen species (ROS) production, isolated neutrophils (in words)” value in experiment [3] is given as “did not result in any significant effect”. The “anticancer activity” value in experiment [1] was “showed anticancer activity”. Also, the GI50 in experiment [1] (NCI-H460, 48 h, SRB) was 22.5 ± 4.15 µM. For the same compound, the “TGI” value in experiment [1] (NCI-H460, 48 h, SRB) came to 60 ± 9.2 µM. The “effect on reactive oxygen species (ROS) production, whole blood phagocytes (in words)” value in the experiment on whole blood phagocytes was “did not result in any significant effect”.

`C[C@]12C=CC(=O)C=C1CC[C@@H]1[C@@H]2CC[C@@]2(C)[C@H]1CC[C@]2(C)O` [Compound 1, dianabol, reference compound]: the IC50 was over 167 µM in experiment [2], over 167 µM in the experiment on IL-2 production (setting [4]), over 167 µM in experiment [3] and over 333 µM in the experiment on whole blood phagocytes. The “effect on T-cell proliferation (in words)” value in experiment [2] is “did not show any significant effect”. Moreover, the “effect on IL-2 production (in words)” value in the experiment with IL-2 production (PHA-activated PBMC) was “did not show any significant effect”. Further, the “anticancer activity” value in experiment [1] is “showed anticancer activity”. In experiment [1] (NCI-H460, 48 h, SRB), this compound yielded a GI50 of 28.3 ± 2.72 µM. For the same compound, the “TGI (μM)” value in experiment [1] (NCI-H460, 48 h, SRB) is recorded as “ND (ND: Values could not be determined indicates <50% inhibition of cell growth at maximum dose (100 μM) tested.)”.

For the origin of these results see patent US8389501B2, “Anticancer compound” (priority 2011, dated 2013).
